{
  "source": "paper doi:10.1101/2022.07.20.500776v2",
  "about": "(biorxiv, 2022)",
  "assay_type_in_all_cases": "biochemical",
  "key": {"[1]": {"target": "T1, Vibrio alkaline phosphatase (VAP) (Vibrio sp. G15-21, UniProt Q93P54, K441L/Y442F)", "T1 sequence (Q93P54 20-521 K441L/Y442F)": "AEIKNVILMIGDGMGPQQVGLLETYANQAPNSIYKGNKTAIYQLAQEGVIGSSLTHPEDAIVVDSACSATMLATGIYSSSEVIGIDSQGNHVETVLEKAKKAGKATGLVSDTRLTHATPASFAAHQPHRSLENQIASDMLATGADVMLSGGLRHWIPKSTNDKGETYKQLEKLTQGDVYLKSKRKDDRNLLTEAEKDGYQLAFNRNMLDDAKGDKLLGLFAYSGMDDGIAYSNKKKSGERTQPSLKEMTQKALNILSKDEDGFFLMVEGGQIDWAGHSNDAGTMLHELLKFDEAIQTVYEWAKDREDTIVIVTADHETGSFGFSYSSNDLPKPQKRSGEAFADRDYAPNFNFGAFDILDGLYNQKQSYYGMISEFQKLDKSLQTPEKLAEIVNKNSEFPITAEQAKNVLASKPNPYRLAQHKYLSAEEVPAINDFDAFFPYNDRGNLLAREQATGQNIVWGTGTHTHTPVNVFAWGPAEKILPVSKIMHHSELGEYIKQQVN", "test": "steady-state pNPP hydrolysis at […] nm, Michaelis-Menten fit", "details": "pH 8.0, 100 mM Tris-HCl, 1 mM MgCl2, 10 °C, no added NaCl"}, "[2]": {"target": "T2, Vibrio alkaline phosphatase (VAP) (Vibrio sp. G15-21, UniProt Q93P54, Y241P)", "T2 sequence (Q93P54 20-521 Y241P)": "T1 sequence (Q93P54 20-521 K441L/Y442F)", "test": "steady-state pNPP hydrolysis at […] nm, Michaelis-Menten fit", "details": "pH 8.0, 100 mM Tris-HCl, 1 mM MgCl2, 10 °C, no added NaCl"}, "[3]": {"target": "T3, Vibrio alkaline phosphatase (VAP) (Vibrio sp. G15-21, UniProt Q93P54, A240D)", "T3 sequence (Q93P54 20-521 A240D)": "T1 sequence (Q93P54 20-521 K441L/Y442F)", "test": "steady-state pNPP hydrolysis at […] nm, Michaelis-Menten fit", "details": "pH 8.0, 100 mM Tris-HCl, 1 mM MgCl2, 10 °C, no added NaCl"}, "[4]": {"target": "T4, Vibrio alkaline phosphatase (VAP) (Vibrio sp. G15-21, UniProt Q93P54, K441E)", "T4 sequence (Q93P54 20-521 K441E)": "T1 sequence (Q93P54 20-521 K441L/Y442F)", "test": "steady-state pNPP hydrolysis at […] nm, Michaelis-Menten fit", "details": "pH 8.0, 100 mM Tris-HCl, 1 mM MgCl2, 10 °C, no added NaCl"}, "[5]": {"target": "T5, Vibrio alkaline phosphatase (VAP) (Vibrio sp. G15-21, UniProt Q93P54, K441L)", "T5 sequence (Q93P54 20-521 K441L)": "T1 sequence (Q93P54 20-521 K441L/Y442F)", "test": "steady-state pNPP hydrolysis at […] nm, Michaelis-Menten fit", "details": "pH 8.0, 100 mM Tris-HCl, 1 mM MgCl2, 10 °C, no added NaCl"}, "[6]": {"target": "T6, Vibrio alkaline phosphatase (VAP) (Vibrio sp. G15-21, UniProt Q93P54)", "T6 sequence (Q93P54 20-521)": "T1 sequence (Q93P54 20-521 K441L/Y442F)", "test": "steady-state pNPP hydrolysis at […] nm, […] HEPES"}},
  "data": [
    {"smiles": "O=[N+]([O-])c1ccc(OP(=O)(O)O)cc1", "note": "[pNPP]", "values": [
      {"measurement": "Km", "setting": "[1]", "result": "8.8 ± 2.4", "unit": "µM"},
      {"measurement": "Km", "setting": "[2]", "result": "4.9 ± 3.4", "unit": "µM"},
      {"measurement": "Km", "setting": "[3]", "result": "12.8 ± 3.8", "unit": "µM"},
      {"measurement": "Km", "setting": "[4]", "result": "7 ± 1.6", "unit": "µM"},
      {"measurement": "Km", "setting": "[5]", "result": "6.6 ± 3.1", "unit": "µM"}
    ]},
    {"smiles": "O=S(=O)(O)CCN1CCN(CCO)CC1", "note": "[HEPES]", "values": [
      {"measurement": "Ki", "setting": "[6]", "result": 21.3, "unit": "mM"}
    ]}
  ]
}
